Source: a compilation of properties of binary mixtures (doi:10.1021/acs.jced.9b00875)

Test: xn = mol fraction of the nth substance listed
Settings: 101 kPa

CNC(C)=O + CCCC[n+]1ccn(C)c1.F[B-](F)(F)F
Settings | speed of sound [m/s] | viscosity [mPa·s]
293.15 K, x2 = 0 | 1406.2 | 5.56
293.15 K, x2 = 0.2042 | 1479.3 | 8.7
293.15 K, x2 = 0.27 | 1497.8 | 10.6
293.15 K, x2 = 0.3564 | 1517.3 | 14.28
293.15 K, x2 = 0.4992 | 1540.3 | 24.5
293.15 K, x2 = 0.5552 | 1546.9 | 30.2
293.15 K, x2 = 0.6389 | 1555.3 | 41
293.15 K, x2 = 0.714 | 1561.4 | 53.3
293.15 K, x2 = 0.8495 | 1569.8 | 82.6
293.15 K, x2 = 0.9302 | 1573.9 | 104.9
298.15 K, x2 = 0 | 1385.3 | 4.77
298.15 K, x2 = 0.1409 | 1440 | 6.18
298.15 K, x2 = 0.27 | 1480.6 | 8.7
298.15 K, x2 = 0.3564 | 1501.1 | 11.64
298.15 K, x2 = 0.4343 | 1516 | 15.46
298.15 K, x2 = 0.5552 | 1532.7 | 24.2
298.15 K, x2 = 0.6389 | 1542 | 32.6
298.15 K, x2 = 0.714 | 1548.6 | 42.1
298.15 K, x2 = 0.8495 | 1558 | 64.5
298.15 K, x2 = 0.9302 | 1562.5 | 81.6
303.15 K, x2 = 0 | 1366.3 | 4.09
303.15 K, x2 = 0.0711 | 1395.9 | 4.92
303.15 K, x2 = 0.2042 | 1444.8 | 6.38
303.15 K, x2 = 0.27 | 1464.5 | 7.32
303.15 K, x2 = 0.3564 | 1486 | 9.13
303.15 K, x2 = 0.4343 | 1501.4 | 11.57
303.15 K, x2 = 0.4992 | 1511.8 | 14.39
303.15 K, x2 = 0.5552 | 1519.2 | 17.5
303.15 K, x2 = 0.6389 | 1529.2 | 23.6
303.15 K, x2 = 0.714 | 1536.2 | 30.7
303.15 K, x2 = 0.7774 | 1541.2 | 38.1
303.15 K, x2 = 0.8495 | 1546.2 | 48.2
303.15 K, x2 = 0.9302 | 1551 | 62
308.15 K, x2 = 0.0711 | 1380.7 | 4.25
308.15 K, x2 = 0.1409 | 1408.3 | 4.86
308.15 K, x2 = 0.2042 | 1430.4 | 5.48
308.15 K, x2 = 0.27 | 1450.3 | 6.31
308.15 K, x2 = 0.3564 | 1472.3 | 7.85
308.15 K, x2 = 0.4343 | 1488.2 | 9.86
308.15 K, x2 = 0.4992 | 1498.9 | 12.11
308.15 K, x2 = 0.5552 | 1506.5 | 14.56
308.15 K, x2 = 0.6389 | 1516.8 | 19.2
308.15 K, x2 = 0.7774 | 1529.2 | 30.2
308.15 K, x2 = 0.8495 | 1534.1 | 37.8
308.15 K, x2 = 0.9302 | 1539.1 | 48
313.15 K, x2 = 0 | 1336.4 | 3.08
313.15 K, x2 = 0.0711 | 1367.7 | 3.76
313.15 K, x2 = 0.1409 | 1395.4 | 4.34
313.15 K, x2 = 0.2042 | 1417.6 | 4.86
313.15 K, x2 = 0.27 | 1437.6 | 5.5
313.15 K, x2 = 0.3564 | 1459.7 | 6.64
313.15 K, x2 = 0.4343 | 1475.8 | 8.12
313.15 K, x2 = 0.5552 | 1494.8 | 11.64
313.15 K, x2 = 0.6389 | 1505 | 15.21
313.15 K, x2 = 0.714 | 1512 | 19.4
313.15 K, x2 = 0.7774 | 1517.5 | 23.7
313.15 K, x2 = 0.8495 | 1522.3 | 29.7
313.15 K, x2 = 0.9302 | 1527 | 37.8
318.15 K, x2 = 0 | 1325.2 | 2.76
318.15 K, x2 = 0.2042 | 1406.7 | 4.13
318.15 K, x2 = 0.27 | 1426.7 | 4.62
318.15 K, x2 = 0.3564 | 1448.6 | 5.5
318.15 K, x2 = 0.4343 | 1464.7 | 6.68
318.15 K, x2 = 0.4992 | 1476 | 8.04
318.15 K, x2 = 0.5552 | 1484.1 | 9.55
318.15 K, x2 = 0.6389 | 1493.8 | 12.51
318.15 K, x2 = 0.714 | 1501 | 16
318.15 K, x2 = 0.7774 | 1506.1 | 19.7
318.15 K, x2 = 0.8495 | 1510.8 | 24.7
318.15 K, x2 = 0.9302 | 1514.9 | 31.6

CCCC[n+]1ccn(C)c1.F[B-](F)(F)F + CNC(C)=O
x1 = 1
Settings | speed of sound [m/s] | viscosity [mPa·s]
298.15 K | 1565.8 | 98.9
303.15 K | 1554.5 | 76.3
308.15 K | 1542.7 | 58.4
313.15 K | 1530.5 | 46.2
318.15 K | 1518 | 38.7
